Values quoted from earlier work in US20260021104A1, “BRILAROXAZINE LIPOSOME COMPOSITION” (Reviva Pharmaceuticals, Inc., priority 2023, published 2026).

Key:
D2-4 receptors = settings: partial agonist
5-HT2B/7 = settings: antagonist
5-HT2A = 5-HT2A (Homo sapiens, UniProt P28223); settings: weak partial agonist or neutral antagonist
5-HT1A receptors = target: T1, 5-HT1A receptors (Homo sapiens, UniProt P08908); settings: partial agonist
T1 sequence (P08908 1-422): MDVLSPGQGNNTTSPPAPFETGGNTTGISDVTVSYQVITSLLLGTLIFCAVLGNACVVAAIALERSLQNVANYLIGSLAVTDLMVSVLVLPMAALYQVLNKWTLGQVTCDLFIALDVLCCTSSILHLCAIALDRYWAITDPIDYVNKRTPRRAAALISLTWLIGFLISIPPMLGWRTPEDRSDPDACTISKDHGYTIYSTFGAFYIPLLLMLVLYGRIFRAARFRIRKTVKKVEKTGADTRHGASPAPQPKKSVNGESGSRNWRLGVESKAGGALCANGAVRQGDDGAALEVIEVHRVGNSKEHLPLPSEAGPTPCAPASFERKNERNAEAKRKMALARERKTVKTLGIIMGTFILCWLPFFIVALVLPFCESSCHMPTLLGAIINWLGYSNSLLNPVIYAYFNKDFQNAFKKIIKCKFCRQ

[1] = target: serotonin transporter (SERT) (Homo sapiens, UniProt P31645)
Chain of serotonin transporter (SERT) (P31645 whole entry, species assumed): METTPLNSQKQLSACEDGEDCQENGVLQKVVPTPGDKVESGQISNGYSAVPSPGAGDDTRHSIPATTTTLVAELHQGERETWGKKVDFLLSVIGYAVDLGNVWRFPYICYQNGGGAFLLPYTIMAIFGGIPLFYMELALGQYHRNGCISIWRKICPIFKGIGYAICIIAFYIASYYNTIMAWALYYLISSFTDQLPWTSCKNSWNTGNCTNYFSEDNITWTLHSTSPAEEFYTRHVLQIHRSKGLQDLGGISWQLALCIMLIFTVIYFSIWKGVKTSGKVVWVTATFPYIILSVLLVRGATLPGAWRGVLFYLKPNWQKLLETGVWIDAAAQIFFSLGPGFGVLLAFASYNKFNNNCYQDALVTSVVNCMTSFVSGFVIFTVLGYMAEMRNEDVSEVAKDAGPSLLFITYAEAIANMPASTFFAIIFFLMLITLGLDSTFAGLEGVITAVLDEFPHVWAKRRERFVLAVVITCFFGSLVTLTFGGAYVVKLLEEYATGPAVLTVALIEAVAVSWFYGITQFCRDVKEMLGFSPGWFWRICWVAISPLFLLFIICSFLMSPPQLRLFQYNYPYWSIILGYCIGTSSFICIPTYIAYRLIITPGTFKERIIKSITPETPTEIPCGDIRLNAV

Chain of 5-HT2A (P28223 whole entry, species assumed): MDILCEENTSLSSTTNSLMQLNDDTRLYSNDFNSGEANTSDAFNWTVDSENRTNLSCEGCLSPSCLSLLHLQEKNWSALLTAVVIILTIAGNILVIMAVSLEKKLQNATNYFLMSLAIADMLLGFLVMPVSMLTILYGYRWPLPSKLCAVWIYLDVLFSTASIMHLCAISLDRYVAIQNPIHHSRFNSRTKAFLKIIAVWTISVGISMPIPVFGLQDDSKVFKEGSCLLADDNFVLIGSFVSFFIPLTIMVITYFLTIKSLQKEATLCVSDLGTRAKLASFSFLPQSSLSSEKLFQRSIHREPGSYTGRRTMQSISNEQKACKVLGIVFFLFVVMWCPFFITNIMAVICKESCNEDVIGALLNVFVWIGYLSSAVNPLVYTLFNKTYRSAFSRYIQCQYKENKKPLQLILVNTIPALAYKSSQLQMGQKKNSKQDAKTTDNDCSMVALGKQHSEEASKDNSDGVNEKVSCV

For `O=C1COc2ccc(OCCCCN3CCN(c4cccc(Cl)c4Cl)CC3)cc2N1` [Brilaroxazine], the binding affinity (D2-4 receptors) is listed as “high binding affinity”, the binding affinity (5-HT2B/7) is listed as “high binding affinity” and the binding affinity (5-HT2A) is listed as “high binding affinity”. The binding affinity (5-HT1A receptors) was “high binding affinity” and the affinity [1] was “moderate affinity”.
